# Measured values taken from patent US20170335402A1, “DOT1L INHIBITORS AND USES THEREOF” (Baylor College of Medicine, priority 2014, published 2017).
# “Also recorded” adds a separate entry of the source.
# Assays:
# [1] = test system: OCI AML3 subcutaneous tumors; test: Nude rat OCI-AML3 xenograft study, tumor volume; type: in vivo; details: 21 days
# Description: (§1) In vivo studies were conducted. Human acute myeloid leukemia cells OCI-AML3 were implanted subcutaneously into the right flank of female athymic nude rats (Hsd:RH-Foxn1rnu, Harlan Laboratories, Inc.). EPZ-5676 was delivered by continuous IV infusion via a catheter surgically implanted in the femoral vein of each rat. Animals were separated into either an efficacy or PK/PD cohort. Both cohorts were dosed by continuous IV infusion with 35 or 70 mg/kg/day. A control group received continuous IV infusion of the vehicle, 5% hydroxypropyl-β-cyclodextrin (HPBCD) in saline. Efficacy was determined after 21 days of drug treatment followed by a 7 day drug holiday. Animals assessed for PK/PD were dosed for 14 days and euthanized following the completion of infusion. All rats were weighed and tumors calipered twice weekly until the end of study. At the completion of the study animals were euthanized by terminal cardiac puncture under isoflurane anesthesia. Euthanized rats were sampled for tumor tissue. Tumors were collected in an RNase-free environment, bisected, snap frozen in liquid nitrogen, pulverized and finally stored at (−80° C.).
# H3K79me2 = test: ELISA of H3K79me2 in OCI AML3 xenograft tumors; type: in vivo, nude rat
# Description: as §1, with “Tumors were collected in an RNase-free environment, bisected, snap frozen in liquid nitrogen, pulverized and finally stored at (−80° C.).” left out
# For isolation of histones from bone marrow, cells were lysed in 250 μL nuclear extraction buffer (10 mM Tris-HCl, 10 mM MgCl2, 25 mM KCl, 1% Triton X-100, 8.6% Sucrose, plus a Roche protease inhibitor tablet 1836145). […] Histones were quantified using the BCA protein assay (Pierce, 23225). […]
# MEIS1 and HOXB3 = test: qRT-PCR of MEIS1 and HOXB3 in OCI AML3 xenograft tumors; type: in vivo, nude rat; details: 21 days
# Description: as §1
# For the isolation of RNA, 10 mg of tumor powder was lysed in 600 μL RLT Lysis Buffer (Qiagen) and homogenized with a Qiashredder column (Qiagen, 79656) following the manufacturer's protocol. […] MEIS1 and HOXB3 mRNA levels were assessed and normalized to GAPDH by qRT-PCR.
# MV4-11 cells = test: Cell proliferation and viability assay (trypan blue exclusion); type: cell-based, human; details: MV4-11 (MLL-rearranged); dose-dependent, FIG. 4
# Description: (§2) Patient AML cell lines were plated in media and treated with the DOT1L inhibitors SYC-522, EPZ004777 or DMSO control was added at the indicated concentrations. Cells counted, washed and re-plated in fresh compound at equal densities every 3-4 days for 12 days. Cell growth and viability were followed by serial cell counts and trypan blue exclusion staining.
# (§3) Exponentially growing cells were plated, in triplicate, in 24-well plates at a density of 2×10^5/mL in a final volume of 1 mL. For dose dependent assays, cells were incubated in increasing concentrations of SYC522 up to 10 μM or EPZ004777 up to 24 μM or DMSO control. For time-dependent assays, cells were incubated in 3 μM EPZ004777 or DMSO control. Every 2-3 days media and compound was replaced and cells were split back to a density of 2×10^5/mL. At each re-plating viable cells number was determined by trypan blue exclusion. Total cell number is expressed as split-adjusted viable cells per mL.
# OCI AML2 cells [2] = test: as above; type: cell-based, human; details: OCI AML2; escalating doses, 10-14 days
# Description: as §2, §3
# OCI AML3 cells [3] = test: as above; type: cell-based, human; details: OCI AML3; escalating doses, 10-14 days
# Description: as §2, §3
# MV411 cells = test: Annexin V binding (AVB) flow cytometry apoptosis assay; type: cell-based, human; details: MV4-11; dose-dependent, FIG. 4
# Description: (§4) For the Annexin V apoptosis assay, 1×10^6 SYC-522-, EPZ004777- or DMSO-treated cells were washed in PBS, resuspended in Ca/HEPES buffer (10 mM HEPES, pH7.4; 140 mM NaCl; 2.5 mM CaCl2) and incubated with Annexin V-APC (BD Pharmingen, San Jose, Calif.) for 30 min then analyzed by flow cytometry.
# (§5) Cells were harvested at each re-plating of the cell proliferation assay described above then split for simultaneous analysis of apoptosis, cell cycle, and differentiation. Apoptosis was determined by Annexin V binding (AVB) flow cytometry assay. The harvested cells were re-suspended in 1×AVB buffer, stained with APC-conjugated Annexin V (BD), then analyzed by flow cytometry. For cell cycle analysis, cells were pelleted, washed in PBS with 0.5% bovine serum albumin, then fixed in 70% ice-cold methanol. The fixed cells were then incubated in PBS with 100 μg/mL RNAse (Invitrogen) for 15 minutes in a 37° C. water bath. Propidium iodide (PI) in PBS at a final concentration of 25 μg/mL was then added and the cells were analyzed by flow cytometry. For differentiation, cells were pelleted, and stained with APC-conjugated CD14 then washed and re-suspended in media containing PI to exclude dead cells. All analyses were performed using an LSR II flow cytometer (BD biosciences) and the data were analyzed using FlowJo (TreeStar, V8.8.7).
# OCI AML2 cells [4] = test: as above; type: cell-based, human; details: increasing concentrations
# Description: as §4, §5
# OCI AML3 cells [5] = test: as above; type: cell-based, human; details: increasing concentrations
# Description: as §4, §5
# OCI AML2 cells [6] = test: Cell differentiation analysis, CD14 flow cytometry; type: cell-based, human; details: dose dependent
# Description: (§6) Cell differentiation analysis was performed by staining with fluorescently labeled marker for cell differentiation, CD14 followed by flow cytometry. Propidium iodide was added prior to flow cytometry analysis to exclude dead cells.
# as §5
# OCI AML3 cells [7] = test: Cell differentiation analysis, CD14 flow cytometry; type: cell-based, human; details: dose dependent
# Description: as §6, §5
# [8] = test system: H3K79me2 in OCI AML2 cells; test: Immunoblot analysis of cellular H3K79 methylation; type: cell-based, human
# [9] = test system: H3K79me2 in OCI AML3 cells; test: Immunoblot analysis of cellular H3K79 methylation; type: cell-based, human
# DNMT3A mutant cells = test: HOX gene expression in DNMT3A mutant cells (FIG. 10); type: cell-based, human; details: FIG. 10, day 6 and day 10 of treatment
# Description: RNA was extracted from OCI AML2 and OCI AML3 cells treated with 3 μM EPZ004777 or DMSO control using RNeasy RNA isolation kit (Qiagen) per manufacturer's protocol. RNA was quantified using Nanodrop instrument and 300-1000 ng (equal quantities for EPZ004777 treated and DMSO controls) of RNA were reverse transcribed using the SuperScript® III First-Strand Synthesis System (Invitrogen). Reverse transcription quantitative PCR was then performed in triplicate using predesigned TaqMan primer and probe sets for HOXA9 (Hs00365956_m1), MEIS1 (Hs01017441_m1), HOXB8 (Hs00256885_m1), HOXB3 (Hs01587922_m1), and GAPDH (Hs02758991_ml) (FAM-MGB; Applied Biosystems) for 30 cycles using an AbiPrism 7900HT (Applied Biosystems). Target gene numbers were normalized to the ribosomal RNA 18s (VIC-MGB; Applied Biosystems) and fold-change determined by the 2^−ΔΔCT equation.
# [10] = 35 mg/kg/day continuous IV infusion
# [11] = 70 mg/kg/day continuous IV infusion
Structure (SMILES),"tumor growth (tumor volume) [1, 10]","tumor growth (tumor volume) [1, 11]",H3K79me2 level (H3K79me2; [10]),H3K79me2 level (H3K79me2; [11]),expression of oncogenic genes including MEIS1 and HOXB3 in tumors (MEIS1 and HOXB3; [10]),expression of oncogenic genes including MEIS1 and HOXB3 in tumors (MEIS1 and HOXB3; [11]),cell proliferation (MV4-11 cells),cell growth / proliferation (OCI AML2 cells [2]),cell growth / proliferation (OCI AML3 cells [3]),induction of apoptosis (MV411 cells),induction of apoptosis (Annexin V binding) (OCI AML2 cells [4]),induction of apoptosis (Annexin V binding) (OCI AML3 cells [5]),terminal differentiation (CD14 staining) (OCI AML2 cells [6]),terminal differentiation (CD14 staining) (OCI AML3 cells [7]),cellular H3K79 methylation [8],cellular H3K79 methylation [9],oncogenic HOX gene expression (DNMT3A mutant cells)
CC(C)N(C[C@H]1O[C@@H](n2cnc3c(N)ncnc32)[C@H](O)[C@@H]1O)[C@H]1C[C@@H](CCc2nc3cc(C(C)(C)C)ccc3[nH]2)C1 [EPZ-5676],inhibited in a dose dependent fashion,inhibited in a dose dependent fashion reaching statistical significance,significant reduction of H3K79me2,significant reduction of H3K79me2,repression of oncogenic genes,repression of oncogenic genes,–,–,–,–,–,–,–,–,–,–,–
CC(C)N(CCCNC(=O)Nc1ccc(C(C)(C)C)cc1)CC1OC(n2cnc3c(N)ncnc32)C(O)C1O (centres unmarked) [SYC-522],–,–,–,–,–,–,reduction of cell proliferation,decreased proliferation; also recorded: inhibited growth in a dose-dependent fashion,decreased proliferation; also recorded: inhibited growth in a dose-dependent fashion,induction of apoptosis,induction of apoptosis,induction of apoptosis,terminal differentiation,terminal differentiation,inhibit H3K79 methylation in a time-dependent manner; also recorded: inhibited in a dose- and time-dependent fashion,inhibit H3K79 methylation in a time-dependent manner; also recorded: inhibited in a dose- and time-dependent fashion,repressed in a time-dependent fashion
